Results taken from ChEMBL document CHEMBL1136797, “Fumagalone, a reversible inhibitor of type 2 methionine aminopeptidase and angiogenesis” (J Med Chem, 2003).
Calls of active or inactive are those of the source. The rule behind the calls is not given here.

Experiments:
Endothelial cell [1] = experiment: Inhibition of indothelial cell ploriferation determined in bovine aortic endothelial cell (BAEC); Inactive; assay type: functional, cell-based; conditions: Bos taurus
[2] = target: T1, Methionine aminopeptidase 2 (Homo sapiens, UniProt P50579)
Target sequence in this assay (P50579 2-478 limits assumed): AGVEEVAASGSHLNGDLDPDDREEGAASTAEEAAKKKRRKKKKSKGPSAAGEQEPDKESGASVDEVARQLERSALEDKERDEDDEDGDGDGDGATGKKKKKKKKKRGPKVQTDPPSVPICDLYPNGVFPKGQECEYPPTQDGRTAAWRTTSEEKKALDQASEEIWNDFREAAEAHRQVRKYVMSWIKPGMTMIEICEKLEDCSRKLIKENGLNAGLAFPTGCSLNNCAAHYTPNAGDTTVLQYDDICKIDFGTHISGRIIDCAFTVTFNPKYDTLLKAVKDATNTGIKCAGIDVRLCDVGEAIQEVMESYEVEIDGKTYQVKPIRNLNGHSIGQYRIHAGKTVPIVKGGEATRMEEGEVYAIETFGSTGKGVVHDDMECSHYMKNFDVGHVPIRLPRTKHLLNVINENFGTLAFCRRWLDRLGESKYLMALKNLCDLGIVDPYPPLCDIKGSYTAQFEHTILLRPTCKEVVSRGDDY

[3] = Inhibition of endothelial cell ploriferation determined in bovine aortic endothelial cell (BAEC); assay type: functional, cell-based, Bos taurus
[4] = target: T1, Methionine aminopeptidase 2; experiment: In vitro inhibitory activity against purified recombinant human Methionine Aminopeptidase 2 (MetAP2)
Target sequence in this assay (P50579 whole entry): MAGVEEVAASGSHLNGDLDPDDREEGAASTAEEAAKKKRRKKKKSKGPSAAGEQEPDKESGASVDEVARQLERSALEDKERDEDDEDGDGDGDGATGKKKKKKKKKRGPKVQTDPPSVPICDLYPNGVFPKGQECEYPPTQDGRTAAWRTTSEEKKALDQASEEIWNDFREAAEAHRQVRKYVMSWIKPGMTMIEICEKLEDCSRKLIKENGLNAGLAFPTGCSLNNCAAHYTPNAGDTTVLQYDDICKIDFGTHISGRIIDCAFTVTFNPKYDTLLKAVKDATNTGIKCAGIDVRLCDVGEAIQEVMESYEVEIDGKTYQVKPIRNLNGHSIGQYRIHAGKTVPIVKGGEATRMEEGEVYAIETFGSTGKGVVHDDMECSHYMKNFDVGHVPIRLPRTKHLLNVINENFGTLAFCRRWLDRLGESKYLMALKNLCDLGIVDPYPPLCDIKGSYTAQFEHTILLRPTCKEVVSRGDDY

Endothelial cell [5] = experiment: Inhibition of endothelial cell ploriferation determined in bovine aortic endothelial cell (BAEC); Inactive; assay type: functional, cell-based; conditions: Bos taurus
[6] = Inhibition of indothelial cell ploriferation determined in bovine aortic endothelial cell (BAEC); assay type: functional, cell-based, Bos taurus

For `CO[C@@H]1C(=O)CC[C@](O)(C[S+]([O-])c2ccccc2)[C@H]1[C@@]1(C)O[C@@H]1CC=C(C)C` (some centres not stated), the NA (Endothelial cell [1]) was “inactive” and the NA [2] was “inactive”.

Work on `CO[C@@H]1[C@H](OC(=O)/C=C/C=C/C=C/C=C/C(=O)O)CC[C@]2(CO2)[C@H]1[C@@]1(C)O[C@@H]1CC=C(C)C` [FUMAGILLIN] yielded an IC50 [3] of 200 nM and an IC50 [4] of 1 nM.

With `CO[C@H]1[C@H]([C@@]2(C)O[C@H]2CC=C(C)C)[C@@](O)(C=O)CC[C@@H]1O` the NA (Endothelial cell [5]) was “inactive”.

With `CO[C@@H]1C(=O)CC[C@](O)(C=O)[C@H]1[C@@]1(C)O[C@H]1CC=C(C)C` the IC50 [6] was 52 nM.

For `CO[C@@H]1[C@H](O)CC[C@](O)(C=O)[C@H]1[C@@]1(C)O[C@@H]1CC=C(C)C`, the NA (Endothelial cell [1]) was “inactive”.
